# Molecular target: T1, ER (Homo sapiens, UniProt P03372)
# T1 construct: host or cells: T47D and MCF7 human breast cancer cells
# T1 sequence (P03372 1-595): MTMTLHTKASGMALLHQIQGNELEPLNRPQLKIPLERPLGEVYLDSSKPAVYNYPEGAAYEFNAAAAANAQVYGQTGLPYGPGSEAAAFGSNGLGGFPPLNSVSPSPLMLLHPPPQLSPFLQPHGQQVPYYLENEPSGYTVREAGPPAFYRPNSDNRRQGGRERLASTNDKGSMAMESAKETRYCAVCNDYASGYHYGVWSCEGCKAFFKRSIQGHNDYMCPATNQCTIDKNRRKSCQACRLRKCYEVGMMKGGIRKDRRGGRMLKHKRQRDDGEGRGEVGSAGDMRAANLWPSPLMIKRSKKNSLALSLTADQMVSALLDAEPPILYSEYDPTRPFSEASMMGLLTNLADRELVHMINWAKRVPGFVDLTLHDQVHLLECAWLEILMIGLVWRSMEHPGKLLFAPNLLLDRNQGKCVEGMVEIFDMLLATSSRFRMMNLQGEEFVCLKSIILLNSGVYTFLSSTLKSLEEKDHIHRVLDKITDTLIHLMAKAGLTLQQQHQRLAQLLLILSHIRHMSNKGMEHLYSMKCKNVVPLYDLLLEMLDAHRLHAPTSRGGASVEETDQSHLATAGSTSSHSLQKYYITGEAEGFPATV
# Test: ER degradation activity, in-cell western blot analysis in T47D cells
# Type: cell-based
# Settings: 16 hours, Table A does not say which cell line (T47D or MCF7), read-out: Potency (DC50)
# In short: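 Read-out is near-infrared fluorescence from an in-cell western, expressed as ER percentage relative to untreated and DMSO controls taken as 100%. T47D breast cancer cells received compound for 16 h in 0.5% DMSO.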
row,SMILES,DC50
1,"C[C@@H]1Cc2c([nH]c3ccccc23)[C@@H](c2c(F)cc(N3CC(CC(=O)N4Cc5cc6c(cc5C4)C(=O)N(C4CCC(=O)NC4=O)C6)C3)cc2F)N1CC(F)F (stereo partly drawn) [E 102, 3-(6-(2-(1-(4-((1R,3R)-2-(2,2-difluoroethyl)-3-methyl-2,3,4,9-tetrahydro-1H-pyrido[3,4-b]indol-1-yl)-3,5-difluorophenyl)azetidin-3-yl)acetyl)-1-oxo-3,5,6,7-tetrahydropyrrolo[3,4-f]isoindol-2(1H)-yl)piperidine-2,6-dione]",> 100 nM
2,"C[C@@H]1Cc2c([nH]c3ccccc23)[C@@H](c2c(F)cc(N3CCC(N4CC(C(=O)N5Cc6cc7c(cc6C5)C(=O)N(C5CCC(=O)NC5=O)C7)C4)CC3)cc2F)N1CC(F)F (stereo partly drawn) [E 120, 3-(6-(1-(1-(4-((1R,3R)-2-(2,2-difluoroethyl)-3-methyl-2,3,4,9-tetrahydro-1H-pyrido[3,4-b]indol-1-yl)-3,5-difluorophenyl)piperidin-4-yl)azetidine-3-carbonyl)-1-oxo-3,5,6,7-tetrahydropyrrolo[3,4-f]isoindol-2(1H)-yl)piperidine-2,6-dione]",10 to 100 nM
3,"C[C@@H]1Cc2c([nH]c3ccccc23)[C@@H](c2c(F)cc(N3CCC(N4Cc5cc6c(cc5C4)C(=O)N(C4CCC(=O)NC4=O)C6=O)CC3)cc2F)N1CC(F)F (stereo partly drawn) [E 88, 6-(1-(4-((1R,3R)-2-(2,2-difluoroethyl)-3-methyl-2,3,4,9-tetrahydro-1H-pyrido[3,4-b]indol-1-yl)-3,5-difluorophenyl)piperidin-4-yl)-2-(2,6-dioxopiperidin-3-yl)-6,7-dihydropyrrolo[3,4-f]isoindole-1,3(2H,5H)-dione]",> 100 nM
4,"O=C1CCC(N2Cc3cc4c(cc3C2=O)CN(CC(=O)N2CCC3(CC2)CN(c2ccc([C@@H]5c6ccc(O)cc6CC[C@@H]5c5ccccc5)cc2)C3)C4)C(=O)N1 (mixture of isomers) [E 5, rac-3-(6-(2-(2-(4-((1R,2S)-6-hydroxy-2-phenyl-1,2,3,4-tetrahydronaphthalen-1-yl)phenyl)-2,7-diazaspiro[3.5]nonan-7-yl)-2-oxoethyl)-1-oxo-3,5,6,7-tetrahydropyrrolo[3,4-f]isoindol-2(1H)-yl)piperidine-2,6-dione]",< 10 nM
5,"O=C1CCC(N2C(=O)c3cc4c(cc3C2=O)CN(CC(=O)N2CC3(C2)CN(c2ccc([C@@H]5c6ccc(O)cc6CC[C@@H]5c5ccc(F)cc5)cc2)C3)C4)C(=O)N1 (mixture of isomers) [E 18, Rac-2-(2,6-dioxopiperidin-3-yl)-6-(2-(6-(4-((1R,2S)-2-(4-fluorophenyl)-6-hydroxy-1,2,3,4-tetrahydronaphthalen-1-yl)phenyl)-2,6-diazaspiro[3.3]heptan-2-yl)-2-oxoethyl)-6,7-dihydropyrrolo[3,4-f]isoindole-1,3(2H,5H)-dione]",10 to 100 nM
6,"C[C@@H]1Cc2c([nH]c3ccccc23)[C@@H](c2c(F)cc(C3CCC(C(=O)N4CC(N5Cc6cc7c(cc6C5)C(=O)N(C5CCC(=O)NC5=O)C7=O)C4)CC3)cc2F)N1CC(F)F (stereo partly drawn) [E249, 6-(1-(4-(4-((1R,3R)-2-(2,2-difluoroethyl)-3-methyl-2,3,4,9-tetrahydro-1H-pyrido[3,4-b]indol-1-yl)-3,5-difluorophenyl)cyclohexane-1-carbonyl)azetidin-3-yl)-2-(2,6-dioxopiperidin-3-yl)-6,7-dihydropyrrolo[3,4-f]isoindole-1,3(2H,5H)-dione]",> 100 nM
7,"C[C@@H]1Cc2c([nH]c3ccccc23)[C@@H](c2cnc(N3CCC(C(=O)N4CCC(N5Cc6cc7c(cc6C5)C(=O)N(C5CCC(=O)NC5=O)C7=O)CC4)CC3)nc2)N1CC(F)(F)F (stereo partly drawn) [E 257, 2-(2,6-dioxopiperidin-3-yl)-6-(1-(1-(5-((1R,3R)-3-methyl-2-(2,2,2-trifluoroethyl)-2,3,4,9-tetrahydro-1H-pyrido[3,4-b]indol-1-yl)pyrimidin-2-yl)piperidine-4-carbonyl)piperidin-4-yl)-6,7-dihydropyrrolo[3,4-f]isoindole-1,3(2H,5H)-dione]",< 10 nM

# Results, then the molecule that gave them:
row,DC50,SMILES
1,< 10 nM,"C[C@@H]1Cc2c([nH]c3ccccc23)[C@@H](c2c(F)cc(N3CCC4(CCN(CC(=O)N5Cc6cc7c(cc6C5)C(=O)N(C5CCC(=O)NC5=O)C7=O)C4)CC3)cc2F)N1CC(F)F (stereo partly drawn) [E 62, 6-(2-(8-(4-((1R,3R)-2-(2,2-difluoroethyl)-3-methyl-2,3,4,9-tetrahydro-1H-pyrido[3,4-b]indol-1-yl)-3,5-difluorophenyl)-2,8-diazaspiro[4.5]decan-2-yl)acetyl)-2-(2,6-dioxopiperidin-3-yl)-6,7-dihydropyrrolo[3,4-f]isoindole-1,3(2H,5H)-dione]"
2,10 to 100 nM,"C[C@@H]1Cc2c([nH]c3ccccc23)[C@@H](c2c(F)cc(N3CCCC(CN4CCC(C(=O)N5Cc6cc7c(cc6C5)C(=O)N(C5CCC(=O)NC5=O)C7=O)CC4)C3)cc2F)N1CC(F)F (stereo partly drawn) [E 58, 6-(1-((1-(4-((1R,3R)-2-(2,2-difluoroethyl)-3-methyl-2,3,4,9-tetrahydro-1H-pyrido[3,4-b]indol-1-yl)-3,5-difluorophenyl)piperidin-3-yl)methyl)piperidine-4-carbonyl)-2-(2,6-dioxopiperidin-3-yl)-6,7-dihydropyrrolo[3,4-f]isoindole-1,3(2H,5H)-dione]"
3,< 10 nM,"C[C@@H]1Cc2c([nH]c3ccccc23)[C@@H](c2c(F)cc(N3CC4(CCN(C(=O)CN5Cc6cc7c(cc6C5)C(=O)N(C5CCC(=O)NC5=O)C7)C4)C3)cc2F)N1CC(F)F (stereo partly drawn) [E 66, 3-(6-(2-(2-(4-((1R,3R)-2-(2,2-difluoroethyl)-3-methyl-2,3,4,9-tetrahydro-1H-pyrido[3,4-b]indol-1-yl)-3,5-difluorophenyl)-2,6-diazaspiro[3.4]octan-6-yl)-2-oxoethyl)-1-oxo-3,5,6,7-tetrahydropyrrolo[3,4-f]isoindol-2(1H)-yl)piperidine-2,6-dione]"

# Same assay, conditions: compounds 16 hours, Table A does not say whether T47D or MCF7, read-out: Potency (DC50)
row,SMILES,DC50
1,"COc1nc(C2CCC(C(=O)N3CCC(N4Cc5cc6c(cc5C4)C(=O)N(C4CCC(=O)NC4=O)C6=O)CC3)CC2)ccc1[C@@H]1c2[nH]c3ccccc3c2C[C@@H](C)N1CC(F)F (stereo partly drawn) [E 402, 6-(1-(4-(5-((1R,3R)-2-(2,2-difluoroethyl)-3-methyl-2,3,4,9-tetrahydro-1H-pyrido[3,4-b]indol-1-yl)-6-methoxypyridin-2-yl)cyclohexane-1-carbonyl)piperidin-4-yl)-2-(2,6-dioxopiperidin-3-yl)-6,7-dihydropyrrolo[3,4-f]isoindole-1,3(2H,5H)-dione]",> 100 nM
2,"C[C@@H]1Cc2c([nH]c3ccccc23)[C@@H](c2ncc(C3=CCC(C(=O)N4CCC(N5Cc6cc7c(cc6C5)C(=O)N(C5CCC(=O)NC5=O)C7=O)CC4)CC3)cc2F)N1CC(F)F (stereo partly drawn) [E 399, 6-(1-(4-(6-((1S,3R)-2-(2,2-difluoroethyl)-3-methyl-2,3,4,9-tetrahydro-1H-pyrido[3,4-b]indol-1-yl)-5-fluoropyridin-3-yl)cyclohex-3-ene-1-carbonyl)piperidin-4-yl)-2-(2,6-dioxopiperidin-3-yl)-6,7-dihydropyrrolo[3,4-f]isoindole-1,3(2H,5H)-dione]",> 100 nM
3,"COc1cc([C@H]2CC[C@@H](C(=O)N3CCC(N4Cc5cc6c(cc5C4)C(=O)N(C4CCC(=O)NC4=O)C6=O)CC3)CC2)ncc1[C@@H]1c2[nH]c3ccccc3c2C[C@@H](C)N1CC(F)F (stereo partly drawn) [E 396, 6-(1-((1S,4s)-4-(5-((1R,3R)-2-(2,2-difluoroethyl)-3-methyl-2,3,4,9-tetrahydro-1H-pyrido[3,4-b]indol-1-yl)-4-methoxypyridin-2-yl)cyclohexane-1-carbonyl)piperidin-4-yl)-2-(2,6-dioxopiperidin-3-yl)-6,7-dihydropyrrolo[3,4-f]isoindole-1,3(2H,5H)-dione]",> 100 nM

# The next lines start with the values.
row,DC50,SMILES
1,> 100 nM,"COc1cc([C@H]2CC[C@H](C(=O)N3CCC(N4Cc5cc6c(cc5C4)C(=O)N(C4CCC(=O)NC4=O)C6=O)CC3)CC2)ncc1[C@@H]1c2[nH]c3ccccc3c2C[C@@H](C)N1CC(F)F (stereo partly drawn) [E 397, 6-(1-((1R,4r)-4-(5-((1R,3R)-2-(2,2-difluoroethyl)-3-methyl-2,3,4,9-tetrahydro-1H-pyrido[3,4-b]indol-1-yl)-4-methoxypyridin-2-yl)cyclohexane-1-carbonyl)piperidin-4-yl)-2-(2,6-dioxopiperidin-3-yl)-6,7-dihydropyrrolo[3,4-f]isoindole-1,3(2H,5H)-dione]"
2,> 100 nM,"O=C1CCC(N2C(=O)c3cc4c(cc3C2=O)CN(CC(=O)N2CCC3(CC2)CCN(c2ccc([C@@H]5c6ccc(O)cc6OC[C@@H]5c5ccccc5)cc2)CC3)C4)C(=O)N1 (mixture of isomers) [E 467, 2-(2,6-dioxopiperidin-3-yl)-6-(2-(9-(4-(7-hydroxy-3-phenylchroman-4-yl)phenyl)-3,9-diazaspiro[5.5]undecan-3-yl)-2-oxoethyl)-6,7-dihydropyrrolo[3,4-f]isoindole-1, 3(2H,5H)-dione]"
3,< 10 nM,C[C@@H]1Cc2c(ccc3[nH]ncc23)[C@@H](c2c(F)cc(NC3CN(C(=O)[C@H]4CC[C@H](N5Cc6cc7c(cc6C5)C(=O)N(C5CCC(=O)NC5=O)C7=O)CC4)C3)cc2F)N1CC(F)F (stereo partly shown) [E 425]
